Test results from PMC10291549, “Reaction Behavior of [1,3-Diethyl-4,5-diphenyl-1H-imidazol-2-ylidene] Containing Gold(I/III) Complexes against Ingredients of the Cell Culture Medium and the Meaning on the Potential Use for Cancer Eradication Therapy” (Journal of Medicinal Chemistry, 2023).

Key:
[1] = test system: A549 cells; format: cell-based; conditions: 72 h incubation; mean ± SD of two or three independent experiments; read-out: metabolic activity IC50, A549
[2] = test system: A549-R cells (Taxol/Paclitaxel-resistant subclone); format: cell-based; conditions: 72 h incubation; mean ± SD of two or three independent experiments; read-out: metabolic activity IC50, A549-R
[3] = test system: K562 cells; format: cell-based; conditions: 72 h incubation; mean ± SD of two or three independent experiments; read-out: metabolic activity IC50, K562
[4] = test system: K562-R cells (Doxorubicin-resistant subclone); format: cell-based; conditions: 72 h incubation; mean ± SD of two or three independent experiments; read-out: metabolic activity IC50, K562-R
[5] = test system: MCF-7 cells; format: cell-based, human; conditions: 72 h incubation; mean ± SD of two or three independent experiments; read-out: metabolic activity IC50, MCF-7
[6] = test system: MCF-7TamR cells (Tamoxifen-resistant subline); format: cell-based, human; conditions: 72 h incubation; mean ± SD of two or three independent experiments; read-out: metabolic activity IC50, MCF-7TamR
[7] = test system: A2780 cells; format: cell-based, human; conditions: 72 h incubation; mean ± SD of two or three independent experiments; read-out: metabolic activity IC50, A2780
[8] = test system: A2780cis cells (Cisplatin-resistant); format: cell-based, human; conditions: 72 h incubation; mean ± SD of two or three independent experiments; read-out: metabolic activity IC50, A2780cis
[9] = test system: IGROV1 cells; format: cell-based; conditions: 72 h incubation; mean ± SD of two or three independent experiments; read-out: metabolic activity IC50, IGROV1
[10] = test system: IGROV1-CSC cells; format: cell-based; conditions: 72 h incubation; mean ± SD of two or three independent experiments; read-out: metabolic activity IC50, IGROV1-CSC
[11] = test system: SV-80 lung fibroblast cells; assay: Modified MTT assay in noncancerous cells; format: cell-based; conditions: at 10 μM; mean of three independent experiments
[12] = HPLC reactivity study in chloride containing ACN/water; format: physicochemical; conditions: t24h; chloride containing ACN/water 50/50; 0.5 mM
[13] = HPLC reactivity study with GSH in ACN/water; format: physicochemical; conditions: t0h (1.5 min); 20 equiv GSH; ACN/water 50/50; 0.5 mM
Description: All nucleophiles (chloride, amino acids, and GSH) were separately reacted with 5–11 in ACN/water = 50/50 (v/v) mixtures at a complex concentration 0.5 mM. This solvent composition was chosen to prevent precipitation of the complex and the formed degradation products.
Amino acids, as well as GSH, were used in 20-fold excess, as realized at a complex concentration of 10 μM in the cell culture medium. Thereto, the respective complex, dissolved in ACN (1 mM), was combined with the same amount of aqueous solution of the nucleophile (20 mM).
The mixture was then incubated for 24 h at rt and monitored at various time points via HPLC using an RP-C18 column and gradient elution (70/30 (v/v) to 90/10 (v/v)) of ACN/water (0.1% trifluoroacetic acid (TFA)).
(§1) Experiments in ACN/water: 1.0 mM solutions of the respective complex were prepared in ACN and diluted with HPLC-grade water (50/50, (v/v)) containing the double-concentrated amount of respective amino acid (20 mM), GSH (20 mM), sodium ascorbate (20 mM), or NADPH (20 mM). As a chloride source, an aqueous solution of KCl 0.8 g/L and NaCl 12 g/L was used. In each case, a final complex concentration of 0.5 mM was achieved. The solutions were incubated for 24 h at rt. For the experiments with RPMI 1640, the aqueous phase was replaced by a cell culture medium.
(§2) Samples (20 μL each) were taken at appropriate time points (t = 0 (1.5 min), 0.5, 1, 1.5, 2, 8, 12, and 24 h) and analyzed with a Shimadzu prominence HPLC system. The mobile phase consisted of ACN (HPLC-grade) and water (HPLC-grade) with 0.1% TFA. To achieve a separation of the compounds, gradient elution from (70/30 (v/v) to 90/10 (v/v)) of ACN/water (0.1% trifluoroacetic acid (TFA)) was used with a flow rate of 1 mL/min at an oven temperature of 35 °C. All solvents have been degassed before use. The injection volume was 20 μL, and the detection wavelength was set at 235 nm, to detect the gold complexes and the amino acids in the chromatogram.

[14] = HPLC reactivity study with sodium ascorbate; format: physicochemical; conditions: 24 h
Description: (§3) GSH caused only substitution reactions, without reduction of Au(I) to Au(0). […] Neither reduction to gold(0), release of the NHC ligand, nor coordination to the gold(I) center occurred.
as §1, §2

[15] = HPLC reactivity study with NADPH; format: physicochemical; conditions: 24 h
Description: as §3, §1, §2

[16] = HPLC control experiment with GSH in PBS; format: physicochemical; conditions: 20 equiv GSH in PBS
Description: The reduced transformation (compared to the direct reaction with GSH) might be the consequence of the high chloride concentration in the medium. To confirm this assumption, 5 was incubated in a control experiment with 20 equiv of GSH (as described above) in phosphate buffered saline (PBS). At t0h, 65.7% of 12 was formed. The amount increased during 24 h to 68.0% of 12 and 2.1% of 8 appeared (Figure S33).
as §1, §2

[17] = HPLC degradation study in ACN/RPMI 1640 cell culture medium; conditions: t24h; ACN/RPMI 1640 50/50; 0.5 mM

**Q.** Which IC50 [1] does the source give for “Chlorido[1,3-diethyl-4,5-diphenyl-1H-imidazol-2-ylidene]gold(I) [Complex 5]” here?
**A.** > 10 µM

**Q.** And the IC50 [2]?
**A.** > 10 µM

**Q.** And the IC50 [3]?
**A.** > 10 µM

**Q.** And the IC50 [4]?
**A.** > 10 µM

**Q.** And the IC50 [5]?
**A.** 5.76 ± 0.88 µM

**Q.** And the IC50 [6]?
**A.** 4.95 ± 0.39 µM

**Q.** What about the IC50 [7] of the same substance?
**A.** 9.45 ± 0.96 µM

**Q.** And the IC50 [8]?
**A.** 4.08 ± 0.8 µM

**Q.** And the IC50 [9]?
**A.** 7.53 ± 1.9 µM

**Q.** What about the IC50 [10] of the same substance?
**A.** 9.18 ± 1.32 µM

**Q.** What about the “metabolic activity (remaining) in SV-80 cells” value [11] of the same substance?
**A.** 64%

**Q.** And the “formation of 8 (ligand scrambling / reduction)” value [12]?
**A.** 0.9%

**Q.** And the “substitution to (NHC)Au(I)-GSH adduct 12” value [13]?
**A.** quantitatively

**Q.** What about the “ligand scrambling to 8” value [14] of the same substance?
**A.** 3.4%

**Q.** What about the “ligand scrambling to 8” value [15] of the same substance?
**A.** 5.6%

**Q.** And the “formation of 12” value ([16]; t0h)?
**A.** 65.7%

**Q.** What about the “formation of 8” value ([16]; t24h) of the same substance?
**A.** 2.1%

**Q.** What about the “formation of 12” value ([16]; t24h) of the same substance?
**A.** 68.0%

**Q.** What about the “formation of 8” value [17] of the same substance?
**A.** 6.2%

**Q.** And the “formation of GSH-adduct 12” value [17]?
**A.** 5.1%
